Data published in patent US7425579B2, “Methods for inhibiting activity of polyamine transporters” (Universite Laval, priority 1998, dated 2008).

What was measured:
[1] = system: T-47D cells; test: Reversal of DFMO-induced cytostasis by exogenous spermidine in T-47D cells; type: cell-based, human; settings: 50 μM BNSD-X (167-fold excess over 0.3 μM spermidine); 2 mM DFMO
Method: FIGS. 6A, 6B, 6C and 6D are graph showing that antagonism of DFMO-induced cytostasis by exogenous spermidine depends on the polyamine and linker structure of the compounds used in a method according to a preferred embodiment of the invention. In particular, T-47D cells were grown for 8-9 d with the indicated concentrations of spermidine in medium containing 1 mM aminoguanidine, in the presence of DFMO (●), transport inhibitor (□), DFMO plus transport inhibitor (▪), or in the absence of either agent (∘), and total DNA content per culture was then determined. Panels A, B, C, and D describe the effect of BNSD-X, BSD-X, BNSD-3 and BSD-3, respectively. Data are presented as the mean±SD for triplicate cultures from one out of at least two identical experiments;
FIGS. 8A and 8B are graphs representing the time course of the effect of a compound used in a method according to a preferred embodiment of the invention on rescue of DFMO-induced cytostasis by exogenous spermidine. In particular, at time zero, T-47D (panel A) or CHO-K1 (panel B) were seeded at 1×10^4 or 5×10^3 cells/well, respectively, in medium containing 1 mM aminoguanidine, plus either 0.3 μM spermidine (Spd, ●), 2 mM DFMO (□), Spd+DFMO (▪), 50 μM (A) or 100 μM (B) BNSD-X (Δ), BNSD-X+Spd (▴), BNSD-X+DFMO (□), BNSD-X+Spd+DFMO (▾), or vehicle only (∘). At the indicated time, total DNA content/well was determined. Data are presented as the mean±SD for triplicate cultures from one representative experiment;
To determine the ability of polyamine transport antagonists to potentiate DFMO-induced inhibition of cell proliferation in the presence of exogenous polyamines, cells were grown for the indicated period in growth medium supplemented with 1 mM aminoguanidine, and either DFMO (1 to 5 mM), the indicated transport inhibitor (50 or 100 μM), or the combination thereof, as well as increasing concentrations of spermidine (0.1 to 300 μM). Fresh medium was added every other day, and cell mass was determined at various time points during the period of exponential growth, or at the end of the experimental period. For the latter experiments, the FBS supplement was replaced with dextran-coated charcoal-treated FBS (5%, v/v) plus 0.5 μg/ml insulin in the case of T-47D, ZR-75-1 and MCF-7 cells (U.S. Pat. No. 6,083,496).

[2] = Bioavailability of BNSD-X in drinking water: plasma and erythrocyte concentrations; type: in vivo, CD-1 mice; settings: for Erythrocyte concentration, Spermidine / Erythrocyte concentration, Spermine / Plasma concentration, BNSD-X / Plasma concentration, Putrescine / Plasma concentration, Spermidine / Plasma concentration, Spermine: mean±S.E.
Method: To determine the bioavailability of BNSD-X, escalating doses of BNSD-X were dissolved in the drinking water (0, 0.25, 0.5, 1, 2 and 4%, w/v) and were made available to CD-1 mice (n=6/group) ad libitum. Animals were sacrificed after 96 h, and blood was immediately collected to determine the concentration of BNSD-X and polyamines in plasma and erythrocytes by HPLC using the dansylation method (Kabra et al. (1986) J. Chromatogr. 380:19-32).
The suitability of BNSD-X as an in vivo inhibitor of polyamine transport was next assessed in the mouse. We first determined the bioavailability of the compound by adding escalating doses of BNSD-X (0, 0.25, 0.5, 1.0, 2.0 and 4.0% (w/v)) in the drinking water of CD-1 mice. Mice were sacrificed after 4 d and the concentration of BNSD-X and polyamines was determined in plasma and erythrocytes (Tables 3 and 4). […] The plasma concentration reached by the chronic drinking of a 1% (w/v) solution of BNSD-X is thus approximately equal to the Ki value of the drug as an inhibitor of spermidine uptake in breast cancer cells (see Table 1). The drug had no effect on the plasma concentration of either putrescine, spermidine or spermine. […] These pharmacokinetic properties indicate that BNSD-X can be administered by a very convenient route to animals up to a dose sufficient in principle to inhibit the major fraction of the uptake of spermidine from the plasma.

[3] = 0.25% (w/v) BNSD-X in drinking water, 96 h
[4] = 0.50% (w/v) BNSD-X in drinking water, 96 h
[5] = 1.0% (w/v) BNSD-X in drinking water, 96 h

Compound: NCCCN(CCCN)Cc1ccc(CN(CCCN)CCCN)cc1 [28a, N,N,N′,N′-tetrakis-(3-aminopropyl)-p-diaminoxylene]
- effect on growth inhibition by DFMO, T-47D [1]: did not markedly increase the extent of growth inhibition observed with DFMO alone
- Erythrocyte concentration, Spermidine [2, 3]: 1975 ± 236 nmol/L packed erythrocytes
- Erythrocyte concentration, Spermine [2, 3]: 60 ± 14 nmol/L packed erythrocytes
- Plasma concentration, BNSD-X [2, 3]: 6 ± 3 nM
- Plasma concentration, Putrescine [2, 3]: 108 ± 11 nM
- Plasma concentration, Spermidine [2, 3]: 147 ± 6 nM
- Plasma concentration, Spermine [2, 3]: 24 ± 1 nM
- Erythrocyte concentration, Spermidine [2, 4]: 2762 ± 560 nmol/L packed erythrocytes
- Erythrocyte concentration, Spermine [2, 4]: 95 ± 12 nmol/L packed erythrocytes
- Plasma concentration, BNSD-X [2, 4]: 32 ± 6 nM
- Plasma concentration, Putrescine [2, 4]: 106 ± 10 nM
- Plasma concentration, Spermidine [2, 4]: 137 ± 18 nM
- Plasma concentration, Spermine [2, 4]: 31 ± 6 nM
- Erythrocyte concentration, Spermidine [2, 5]: 2079 ± 291 nmol/L packed erythrocytes
- Erythrocyte concentration, Spermine [2, 5]: 83 ± 23 nmol/L packed erythrocytes
- Plasma concentration, BNSD-X [2, 5]: 129 ± 33 nM
- Plasma concentration, Putrescine [2, 5]: 117 ± 19 nM
- Plasma concentration, Spermidine [2, 5]: 168 ± 15 nM
- Plasma concentration, Spermine [2, 5]: 38 ± 3 nM
- water consumption ([2]; BNSD-X concentrations higher than 1.0% (2.0 and 4.0%) in drinking water): decreased drastically
- effect on the plasma concentration of putrescine, spermidine or spermine ([2]; BNSD-X in drinking water, 96 h): no effect
- accumulation into erythrocytes ([2]; BNSD-X up to 1.0% in drinking water): did not accumulate into erythrocytes
- oral absorption ([2]; in drinking water): readily absorbed orally
